According to patent US11206827B2, “Herbicidal composition comprising cinmethylin and specific quinolinecarboxylic acids” (BASF Agro B.V., priority 2015, dated 2021):

What was measured:
Type in all cases: in vivo
Settings in all cases: solo application, 20 DAT
Polygonum convolvulus = experiment: Greenhouse pre-emergence herbicidal activity, POLCO
Method: (§1) The test plants have been seeded, separately for each species, in plastic containers in sandy loamy soil containing 5% of organic matter.
(§2) The containers were irrigated gently to promote germination and growth and subsequently covered with transparent plastic hoods until the plants had rooted.
(§3) The plants have been cultivated due to their individual requirements at 10-25° C. and 20-35° C. The plants were irrigated due to their necessity.
(§4) The racemic mixture (±)-2-exo-(2-Methylbenzyloxy)-1-methyl-4-isopropyl-7-oxabicyclo[2.2.1]heptane was used as herbicide A and formulated as emulsifiable concentrates with an active ingredient concentration of 50 g/l, 100 g/l or 750 g/l respectively.
(§5) Quinmerac (herbicide B.2) was used as a wettable powder (WP) formulation having an active ingredient concentration of 50%.
(§6) In the following experiments, the herbicidal activity for the individual herbicidal compositions (solo and mixture applications) was assessed 20 days after treatment (DAT).
(§7) The evaluation for the damage on undesired weeds caused by the chemical compositions was carried out using a scale from 0 to 100%, compared to the untreated control plants. Here, 0 means no damage and 100 means complete destruction of the plants.
(§8) The plants used in the greenhouse experiments belonged to the following species:
(§9) where X=effect in percent using herbicide A at an application rate a; • Y=effect in percent using herbicide B at application rate b; • E=expected effect (in %) of herbicide A+ herbicide B at application rates a+b.
(§10) The value E corresponds to the effect (plant damage or injury) which is to be expected if the activity of the individual compounds is additive. If the observed effect is higher than the value E calculated according to the Colby equation, a synergistic effect is present.
(§11) Table 1 below relates to the herbicidal activity, in greenhouse trials, of the individual actives and the combinations applied at different rates and ratios, in pre-emergence application at 20 days after treatment (DAT).

Sorghum halepense = experiment: Greenhouse pre-emergence herbicidal activity, SORHA
Method: as §1, §2, §3, §4, §5, §6, §7, §8, §9, §10, §11

Geranium dissectum = experiment: Greenhouse pre-emergence herbicidal activity, GERDI
Method: as §1, §2, §3, §4, §5, §6, §7, §8, §9, §10, §11

Stellaria media = experiment: Greenhouse pre-emergence herbicidal activity, STEME
Method: as §1, §2, §3, §4, §5, §6, §7, §8, §9, §10, §11

Echinochloa crus-galli = experiment: Greenhouse pre-emergence herbicidal activity, ECHCG
Method: as §1, §2, §3, §4, §5, §6, §7, §8, §9, §10, §11

Anthemis arvensis = experiment: Greenhouse pre-emergence herbicidal activity, ANTAR
Method: as §1, §2, §3, §4, §5
(§12) In the following experiments, the herbicidal activity for the individual herbicidal compositions (solo and mixture applications) was assessed 20 days after treatment (DAT). […]
(§13) The value E corresponds to the effect (plant damage or injury) which is to be expected if the activity of the individual compounds is additive. If the observed effect is higher than the value E calculated according to the Colby equation, a synergistic effect is present. […]

Digitaria sanguinalis = experiment: Greenhouse pre-emergence herbicidal activity, DIGSA
Method: as §1, §2, §3, §4, §5, §6, §7, §8, §9, §10, §11

Papaver rhoeas = experiment: Greenhouse pre-emergence herbicidal activity, PAPRH
Method: as §1, §2, §3, §4, §5, §12, §13

Abutilon theophrasti = experiment: Greenhouse pre-emergence herbicidal activity, ABUTH
Method: as §1, §2, §3, §4, §5, §6, §7, §8, §9, §10, §11

Lolium multiflorum = experiment: Greenhouse pre-emergence herbicidal activity, LOLMU
Method: as §1, §2, §3, §4, §5, §6, §7, §8, §9, §10, §11

Alopecurus myosuroides = experiment: Greenhouse pre-emergence herbicidal activity, ALOMY
Method: as §1, §2, §3, §4, §5, §12, §13

Amaranthus retroflexus = experiment: Greenhouse pre-emergence herbicidal activity, AMARE
Method: as §1, §2, §3, §4, §5, §12, §13

Setaria viridis = experiment: Greenhouse pre-emergence herbicidal activity, SETVI
Method: as §1, §2, §3, §4, §5, §6, §7, §8, §9, §10, §11

Avena fatua = experiment: Greenhouse pre-emergence herbicidal activity, AVEFA
Method: as §1, §2, §3, §4, §5, §6, §7, §8, §9, §10, §11

Measured: herbicidal activity

Cc1cnc2c(C(=O)O)c(Cl)ccc2c1 [quinmerac, 7-chloro-3-methylquinoline-8-carboxylic acid]
0%: Polygonum convolvulus; 100 g ai/ha | Polygonum convolvulus; 200 g ai/ha | Sorghum halepense; 62.5 g ai/ha | Geranium dissectum; 31.25 g ai/ha | Geranium dissectum; 62.5 g ai/ha | Geranium dissectum; 200 g ai/ha | Stellaria media; 50 g ai/ha | Stellaria media; 100 g ai/ha | Echinochloa crus-galli; 31.25 g ai/ha | Echinochloa crus-galli; 62.5 g ai/ha | Anthemis arvensis; 250 g ai/ha | Digitaria sanguinalis; 31.25 g ai/ha | Digitaria sanguinalis; 62.5 g ai/ha | Digitaria sanguinalis; 125 g ai/ha | Digitaria sanguinalis; 250 g ai/ha | Papaver rhoeas; 31.25 g ai/ha | Abutilon theophrasti; 50 g ai/ha | Abutilon theophrasti; 200 g ai/ha | Lolium multiflorum; 250 g ai/ha | Alopecurus myosuroides; 250 g ai/ha | Amaranthus retroflexus; 250 g ai/ha | Setaria viridis; 31.25 g ai/ha | Setaria viridis; 62.5 g ai/ha | Avena fatua; 25 g ai/ha | Avena fatua; 50 g ai/ha | Avena fatua; 125 g ai/ha | Avena fatua; 250 g ai/ha
50%: Geranium dissectum; 250 g ai/ha
25%: Sorghum halepense; 200 g ai/ha | Lolium multiflorum; 200 g ai/ha

(±)-2-exo-(2-Methylbenzyloxy)-1-methyl-4-isopropyl-7-oxabicyclo[2.2.1]heptane [herbicide A]
30%: Amaranthus retroflexus; 100 g ai/ha | Avena fatua; 62.5 g ai/ha
90%: Digitaria sanguinalis; 100 g ai/ha | Setaria viridis; 12.5 g ai/ha
98%: Sorghum halepense; 25 g ai/ha | Echinochloa crus-galli; 25 g ai/ha | Lolium multiflorum; 250 g ai/ha
10%: Avena fatua; 100 g ai/ha
70%: Digitaria sanguinalis; 50 g ai/ha | Papaver rhoeas; 12.5 g ai/ha | Lolium multiflorum; 100 g ai/ha
0%: Polygonum convolvulus; 125 g ai/ha | Polygonum convolvulus; 250 g ai/ha | Geranium dissectum; 12.5 g ai/ha | Geranium dissectum; 25 g ai/ha | Stellaria media; 62.5 g ai/ha | Anthemis arvensis; 100 g ai/ha | Digitaria sanguinalis; 12.5 g ai/ha | Digitaria sanguinalis; 25 g ai/ha | Avena fatua; 31.25 g ai/ha | Avena fatua; 50 g ai/ha
95%: Sorghum halepense; 250 g ai/ha | Geranium dissectum; 100 g ai/ha | Echinochloa crus-galli; 12.5 g ai/ha | Alopecurus myosuroides; 100 g ai/ha | Setaria viridis; 25 g ai/ha
85%: Geranium dissectum; 250 g ai/ha
65%: Abutilon theophrasti; 250 g ai/ha
40%: Stellaria media; 125 g ai/ha
25%: Abutilon theophrasti; 62.5 g ai/ha
